Laboratory results from ChEMBL document CHEMBL4251574, “Design, synthesis, and biological evaluation of new 1,2,3-triazolo-2'-deoxy-2'-fluoro- 4'-azido nucleoside derivatives as potent anti-HBV agents” (Eur J Med Chem, 2018).

Assays:
Type in all cases: functional
Hepatitis B virus [1] = assay: Antiviral activity against Hepatitis B virus infected in human HepG2.2.15 cells assessed as inhibition of HBeAg secretion at 5 uM after 9 days by ELISA relative to control; settings: HepG2.2.15, 216 h
Hepatitis B virus [2] = assay: Antiviral activity against Hepatitis B virus infected in human HepG2.2.15 cells assessed as inhibition of HBsAg secretion at 5 uM after 9 days by ELISA relative to control; settings: HepG2.2.15, 216 h
HepG2 2.2.15 = assay: Cytotoxicity against human HepG2.2.15 cells after 9 days by MTT assay; settings: HepG2 2.2.15, 216 h
Hepatitis B virus [3] = assay: Antiviral activity against Hepatitis B virus infected in human HepG2.2.15 cells assessed as inhibition of HBeAg secretion at 20 uM after 9 days by ELISA relative to control; settings: HepG2.2.15, 216 h
Hepatitis B virus [4] = assay: Antiviral activity against Hepatitis B virus infected in human HepG2.2.15 cells assessed as inhibition of HBsAg secretion at 20 uM after 9 days by ELISA relative to control; settings: HepG2.2.15, 216 h
Hepatitis B virus [5] = assay: Antiviral activity against Hepatitis B virus infected in human HepG2.2.15 cells assessed as inhibition of intracellular HBV DNA level at 20 uM measured on day 9 by FQ-PCR analysis; settings: HepG2.2.15, 216 h
Hepatitis B virus [6] = assay: Antiviral activity against Hepatitis B virus harboring rtV173L/L180M/M204V mutant infected in HepGRL1 cells assessed as inhibition of intracellular HBV DNA level at 20 uM measured on day 9 by FQ-PCR analysis relative to control; settings: 216 h
Hepatitis B virus [7] = assay: Antiviral activity against Hepatitis B virus harboring rtV173L/L180M/M204V mutant infected in HepGRL1 cells assessed as inhibition of intracellular HBV DNA level at 20 uM measured on day 6 by FQ-PCR analysis relative to control; settings: 144 h
Hepatitis B virus [8] = assay: Antiviral activity against Hepatitis B virus infected in human HepG2.2.15 cells assessed as intracellular HBV DNA levels at 20 uM measured on day 6 by FQ-PCR analysis; settings: HepG2.2.15, 144 h
Duck hepatitis B virus [9] = assay: Antiviral activity against DHBV infected in duck assessed as inhibition of viral DNA level in serum at 10 mg/kg, po administered once daily measured on day 10 by SYBR Green I dye-based FQ-PCR analysis relative to control; settings: 240 h
Duck hepatitis B virus [10] = assay: Antiviral activity against DHBV infected in duck assessed as inhibition of viral DNA level in serum at 10 mg/kg, po administered once daily measured on day 15 by SYBR Green I dye-based FQ-PCR analysis relative to control; settings: 360 h
Duck hepatitis B virus [11] = assay: Antiviral activity against DHBV infected in duck assessed as inhibition of viral DNA level in liver at 10 mg/kg, po administered once daily measured on day 10 by SYBR Green I dye-based FQ-PCR analysis relative to control; settings: 240 h
Duck hepatitis B virus [12] = assay: Antiviral activity against DHBV infected in duck assessed as inhibition of viral DNA level in liver at 10 mg/kg, po administered once daily measured on day 15 by SYBR Green I dye-based FQ-PCR analysis relative to control; settings: 360 h
Hepatitis B virus [13] = assay: Antiviral activity against Hepatitis B virus infected in human HepG2.2.15 cells assessed as inhibition of intracellular HBV DNA level at 0.2 uM measured on day 9 by FQ-PCR analysis; settings: HepG2.2.15, 216 h
Hepatitis B virus [14] = assay: Antiviral activity against Hepatitis B virus infected in human HepG2.2.15 cells assessed as inhibition of intracellular HBV DNA level at 1 uM measured on day 9 by FQ-PCR analysis; settings: HepG2.2.15, 216 h
Hepatitis B virus [15] = assay: Antiviral activity against Hepatitis B virus infected in human HepG2.2.15 cells assessed as inhibition of intracellular HBV DNA level at 5 uM measured on day 9 by FQ-PCR analysis; settings: HepG2.2.15, 216 h
Hepatitis B virus [16] = assay: Antiviral activity against Hepatitis B virus harboring rtV173L/L180M/M204V mutant infected in HepGRL1 cells assessed as inhibition of intracellular HBV DNA level at 0.2 uM measured on day 9 by FQ-PCR analysis relative to control; settings: 216 h
Hepatitis B virus [17] = assay: Antiviral activity against Hepatitis B virus harboring rtV173L/L180M/M204V mutant infected in HepGRL1 cells assessed as inhibition of intracellular HBV DNA level at 1 uM measured on day 9 by FQ-PCR analysis relative to control; settings: 216 h
Hepatitis B virus [18] = assay: Antiviral activity against Hepatitis B virus harboring rtV173L/L180M/M204V mutant infected in HepGRL1 cells assessed as inhibition of intracellular HBV DNA level at 5 uM measured on day 9 by FQ-PCR analysis relative to control; settings: 216 h
Hepatitis B virus [19] = assay: Antiviral activity against Hepatitis B virus harboring rtV173L/L180M/M204V mutant infected in HepGRL1 cells assessed as inhibition of intracellular HBV DNA level at 0.2 uM measured on day 6 by FQ-PCR analysis relative to control; settings: 144 h
Hepatitis B virus [20] = assay: Antiviral activity against Hepatitis B virus harboring rtV173L/L180M/M204V mutant infected in HepGRL1 cells assessed as inhibition of intracellular HBV DNA level at 1 uM measured on day 6 by FQ-PCR analysis relative to control; settings: 144 h
Hepatitis B virus [21] = assay: Antiviral activity against Hepatitis B virus harboring rtV173L/L180M/M204V mutant infected in HepGRL1 cells assessed as inhibition of intracellular HBV DNA level at 5 uM measured on day 6 by FQ-PCR analysis relative to control; settings: 144 h
Hepatitis B virus [22] = assay: Antiviral activity against Hepatitis B virus infected in human HepG2.2.15 cells assessed as inhibition of intracellular HBV DNA level at 0.2 uM measured on day 6 by FQ-PCR analysis; settings: HepG2.2.15, 144 h
Hepatitis B virus [23] = assay: Antiviral activity against Hepatitis B virus infected in human HepG2.2.15 cells assessed as inhibition of intracellular HBV DNA level at 1 uM measured on day 6 by FQ-PCR analysis; settings: HepG2.2.15, 144 h
Hepatitis B virus [24] = assay: Antiviral activity against Hepatitis B virus infected in human HepG2.2.15 cells assessed as inhibition of intracellular HBV DNA level at 5 uM measured on day 6 by FQ-PCR analysis; settings: HepG2.2.15, 144 h
Duck hepatitis B virus [25] = assay: Antiviral activity against DHBV infected in duck assessed as inhibition of viral DNA level in serum at 0.04 mg/kg, po administered once daily measured on day 10 by SYBR Green I dye-based FQ-PCR analysis relative to control; settings: 240 h
Duck hepatitis B virus [26] = assay: Antiviral activity against DHBV infected in duck assessed as inhibition of viral DNA level in serum at 0.2 mg/kg, po administered once daily measured on day 10 by SYBR Green I dye-based FQ-PCR analysis relative to control; settings: 240 h
Duck hepatitis B virus [27] = assay: Antiviral activity against DHBV infected in duck assessed as inhibition of viral DNA level in serum at 1 mg/kg, po administered once daily measured on day 10 by SYBR Green I dye-based FQ-PCR analysis relative to control; settings: 240 h
Duck hepatitis B virus [28] = assay: Antiviral activity against DHBV infected in duck assessed as inhibition of viral DNA level in serum at 0.04 mg/kg, po administered once daily measured on day 15 by SYBR Green I dye-based FQ-PCR analysis relative to control; settings: 360 h
Duck hepatitis B virus [29] = assay: Antiviral activity against DHBV infected in duck assessed as inhibition of viral DNA level in serum at 0.2 mg/kg, po administered once daily measured on day 15 by SYBR Green I dye-based FQ-PCR analysis relative to control; settings: 360 h
Duck hepatitis B virus [30] = assay: Antiviral activity against DHBV infected in duck assessed as inhibition of viral DNA level in serum at 1 mg/kg, po administered once daily measured on day 15 by SYBR Green I dye-based FQ-PCR analysis relative to control; settings: 360 h
Duck hepatitis B virus [31] = assay: Antiviral activity against DHBV infected in duck assessed as inhibition of viral DNA level in liver at 0.04 mg/kg, po administered once daily measured on day 10 by SYBR Green I dye-based FQ-PCR analysis relative to control; settings: 240 h
Duck hepatitis B virus [32] = assay: Antiviral activity against DHBV infected in duck assessed as inhibition of viral DNA level in liver at 0.2 mg/kg, po administered once daily measured on day 10 by SYBR Green I dye-based FQ-PCR analysis relative to control; settings: 240 h
Duck hepatitis B virus [33] = assay: Antiviral activity against DHBV infected in duck assessed as inhibition of viral DNA level in liver at 1 mg/kg, po administered once daily measured on day 10 by SYBR Green I dye-based FQ-PCR analysis relative to control; settings: 240 h
Duck hepatitis B virus [34] = assay: Antiviral activity against DHBV infected in duck assessed as inhibition of viral DNA level in liver at 0.04 mg/kg, po administered once daily measured on day 15 by SYBR Green I dye-based FQ-PCR analysis relative to control; settings: 360 h
Duck hepatitis B virus [35] = assay: Antiviral activity against DHBV infected in duck assessed as inhibition of viral DNA level in liver at 0.2 mg/kg, po administered once daily measured on day 15 by SYBR Green I dye-based FQ-PCR analysis relative to control; settings: 360 h
Duck hepatitis B virus [36] = assay: Antiviral activity against DHBV infected in duck assessed as inhibition of viral DNA level in liver at 1 mg/kg, po administered once daily measured on day 15 by SYBR Green I dye-based FQ-PCR analysis relative to control; settings: 360 h

In the case of [N-]=[N+]=N[C@]1(CO)O[C@@H](n2cc(CO)nn2)[C@@H](F)[C@@H]1O, the inhibition at 5 µM (Hepatitis B virus [1]) is reported as 10.8%, the inhibition at 5 µM (Hepatitis B virus [2]) is reported as 21.5% and the CC50 (HepG2 2.2.15) is reported as > 1000 µM.
For Nc1ccn([C@@H]2CS[C@H](CO)O2)c(=O)n1 [LAMIVUDINE], the inhibition at 20 µM (Hepatitis B virus [3]) was 22.1%, the inhibition at 20 µM (Hepatitis B virus [4]) was 47.7% and the CC50 (HepG2 2.2.15) was > 1000 µM. For the same compound, the inhibition at 20 µM (Hepatitis B virus [5]) was 85.7%, the inhibition at 20 µM (Hepatitis B virus [6]) was 12.9% and the inhibition at 20 µM (Hepatitis B virus [7]) was 10.8%. The inhibition at 20 µM (Hepatitis B virus [8]) was 75.4%, the inhibition in vivo at 10 mg/kg (Duck hepatitis B virus [9]) was 65.2% and the inhibition in vivo at 10 mg/kg (Duck hepatitis B virus [10]) was 85.7%. For the same compound, the inhibition in vivo at 10 mg/kg (Duck hepatitis B virus [11]) was 57.1% and the inhibition in vivo at 10 mg/kg (Duck hepatitis B virus [12]) was 75.6%.
For COC(=N)c1cn([C@@H]2O[C@@](CO)(N=[N+]=[N-])[C@@H](O)[C@@H]2F)nn1, the inhibition at 5 µM (Hepatitis B virus [1]) was 11.4%, the inhibition at 5 µM (Hepatitis B virus [2]) was 17.7% and the CC50 (HepG2 2.2.15) was 101 µM.
In the case of COC(=O)c1cn([C@@H]2O[C@@](CO)(N=[N+]=[N-])[C@@H](O)[C@@H]2F)nn1, the inhibition at 5 µM (Hepatitis B virus [1]) is reported as 12.3%, the inhibition at 5 µM (Hepatitis B virus [2]) is reported as 22% and the CC50 (HepG2 2.2.15) is reported as 115 µM.
For [N-]=[N+]=N[C@]1(CO)O[C@@H](n2cc(C(N)=O)nn2)[C@@H](F)[C@@H]1O, the inhibition at 5 µM (Hepatitis B virus [1]) was 21.9%, the inhibition at 5 µM (Hepatitis B virus [2]) was 45.3% and the CC50 (HepG2 2.2.15) was 526 µM. For the same compound, the inhibition at 0.2 µM (Hepatitis B virus [13]) was 34.7%, the inhibition at 1 µM (Hepatitis B virus [14]) was 51% and the inhibition at 5 µM (Hepatitis B virus [15]) was 57.1%. For the same compound, the inhibition at 0.2 µM (Hepatitis B virus [16]) was 28.2%, the inhibition at 1 µM (Hepatitis B virus [17]) was 52.4% and the inhibition at 5 µM (Hepatitis B virus [18]) was 64.1%. The inhibition at 0.2 µM (Hepatitis B virus [19]) was 15.8%, the inhibition at 1 µM (Hepatitis B virus [20]) was 27.5% and the inhibition at 5 µM (Hepatitis B virus [21]) was 49.2%. It also gave an inhibition at 0.2 µM (Hepatitis B virus [22]) of 13.1%, an inhibition at 1 µM (Hepatitis B virus [23]) of 39.3% and an inhibition at 5 µM (Hepatitis B virus [24]) of 42.6%. For the same compound, the inhibition in vivo at 0.04 mg/kg (Duck hepatitis B virus [25]) was 8.7%, the inhibition in vivo at 0.2 mg/kg (Duck hepatitis B virus [26]) was 26.1% and the inhibition in vivo at 1 mg/kg (Duck hepatitis B virus [27]) was 56.5%. It also gave an inhibition in vivo at 0.04 mg/kg (Duck hepatitis B virus [28]) of 35.7%, an inhibition in vivo at 0.2 mg/kg (Duck hepatitis B virus [29]) of 39.3% and an inhibition in vivo at 1 mg/kg (Duck hepatitis B virus [30]) of 67.9%. The inhibition in vivo at 0.04 mg/kg (Duck hepatitis B virus [31]) was 7.1%, the inhibition in vivo at 0.2 mg/kg (Duck hepatitis B virus [32]) was 21.4% and the inhibition in vivo at 1 mg/kg (Duck hepatitis B virus [33]) was 50%. It also gave an inhibition in vivo at 0.04 mg/kg (Duck hepatitis B virus [34]) of 12.2%, an inhibition in vivo at 0.2 mg/kg (Duck hepatitis B virus [35]) of 24.4% and an inhibition in vivo at 1 mg/kg (Duck hepatitis B virus [36]) of 53.7%.
